The structures appear in SMILES notation.

Broadly, the melting point is the temperature, or range, at which the solid turns liquid. As usually defined, the Ki is the dissociation constant of the complex between target and ligand, obtained from inhibition or displacement. A high value points to lower affinity.

System in one data set: not given
Test: not given
Conditions: not given
In the case of `COc1ccc(S(=O)(=O)CC(O)(CS(=O)(=O)c2ccc(OC)cc2)C(=O)NO)cc1` [Example 4], the melting point fell in the range of 75 to 80 °C.

Another data set deals with Stromelysin (Homo sapiens, UniProt P08254). Put plainly: MMP inhibition, particle concentration fluorescence assay (stromelysin). The format is biochemical. Conditions: in vitro; fluorescein/biotin substrate; MMP buffer pH 7.5; room temperature. On the procedure: Inhibitory activity is evaluated in one or more of the MMP enzymes (stromelysin, gelatinase, and collagenase) in vitro using particle concentration fluorescence assay. An inhibitor binds to MMP enzymes which prevents the degradation of a substrate by stromelysin, gelatinase, or coilagenase. The substrate has attached to it a fluorescein and a biotin moiety. The intact substrate then binds to an avidin-coated particle via the biotin moiety. Once the particle is washed and dried, a fluorescent signal is generated since the fluorescent group is attached to the particle. Without an inhibitor present, the substrate is degraded by MMP enzymes and the fluorescein group is removed, therefore, no fluorescent signal can be detected. Testing compounds are dissolved in DMSO to the desired concentration, then the solutions are diluted to 1:5 with MMP buffer (50 mM Tris-HCl, pH 7.5; 150 mM NaCl; 0.02% NaN3). Serial two-fold dilutions of each compound are prepared. A concentrated, activated enzyme solution is transferred into each plate of the testing compounds, and the mixture is incubated at room temperature for 15 minutes. Thawed MMP substrate is then added into all plates, and the plates are incubated in the dark for 1-3 hours at room temperature. At this point, the substrate mixture is mixed with 0.1% avidin-coated polystyrene particles. After 15 minutes, the fluorescence values are measured following filtration and washing of the beads. Ki values are then calculated.
Sequence of Stromelysin (P08254 100-477): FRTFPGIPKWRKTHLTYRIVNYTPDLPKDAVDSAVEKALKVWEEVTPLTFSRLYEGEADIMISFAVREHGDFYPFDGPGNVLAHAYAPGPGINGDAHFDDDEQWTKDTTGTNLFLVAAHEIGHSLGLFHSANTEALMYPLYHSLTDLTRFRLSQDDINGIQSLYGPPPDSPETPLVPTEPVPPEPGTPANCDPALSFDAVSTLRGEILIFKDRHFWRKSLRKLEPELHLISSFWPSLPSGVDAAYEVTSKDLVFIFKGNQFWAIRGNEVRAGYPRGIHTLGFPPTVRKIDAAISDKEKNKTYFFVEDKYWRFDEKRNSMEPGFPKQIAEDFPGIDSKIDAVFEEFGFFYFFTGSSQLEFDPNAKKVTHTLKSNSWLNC
In turn, `COc1ccc(S(=O)(=O)CC(O)(CS(=O)(=O)c2ccc(-c3ccccc3)cc2)C(=O)NO)cc1` (racemic) [Example 1, N-Hydroxy-2-hydroxy-2-[(4-methoxybenzenesulfonyl)methyl]-3-(4-phenylbenzenesulfonyl)-propionamide] displayed a Ki of 74 nM.

As to `COc1ccc(S(=O)(=O)CC(O)(CS(=O)(=O)c2ccc(-c3ccccc3)cc2)C(=O)NO)cc1` (single isomer, unassigned) [Example 1, Enantiomer A, N-Hydroxy-2-hydroxy-2-[(4-methoxybenzenesulfonyl)methyl]-3-(4-phenylbenzenesulfonyl)-propionamide], affinity was put at a Ki of 21 nM. The molecule `COc1ccc(S(=O)(=O)CC(O)(CS(=O)(=O)c2ccc(-c3ccccc3)cc2)C(=O)NO)cc1` (single isomer, unassigned) [Example 1, Enantiomer B, N-Hydroxy-2-hydroxy-2-[(4-methoxybenzenesulfonyl)methyl]-3-(4-phenylbenzenesulfonyl)-propionamide] returned a Ki of 80 nM. In turn, `COc1ccc(S(=O)(=O)CC(O)(CS(=O)(=O)c2ccc(F)cc2)C(=O)NO)cc1` (stereo not shown) [Example 2, N-Hydroxy-2-hydroxy-2-[(4-methoxybenzenesulfonyl)methyl]-3-(4-fluorobenzenesulfonyl)-propionamide] returned a Ki of 180 nM. For the molecule `CCCCc1ccc(S(=O)(=O)CC(O)(CS(=O)(=O)c2ccc(OC)cc2)C(=O)NO)cc1` (stereo not shown) [Example 3, N-Hydroxy-2-hydroxy-2-[(4-methoxybenzenesulfonyl)methyl]-3-(4-n-butylbenzenesulfonyl)-propionamide], the Ki turned out to be 46 nM. Compared with the last molecule, the Ki is about 3.9-fold lower. For the molecule `COc1ccc(S(=O)(=O)CC(O)(CS(=O)(=O)c2ccc(OC)cc2)C(=O)NO)cc1` [Example 4], the Ki is 39 nM. Still for that read-out and setting: for `COc1ccc(S(=O)(=O)CC(O)(CNC(=O)c2ccccc2)C(=O)NO)cc1` (stereo not shown) [Example 5] the value was 240 nM. The same measure, in the same setting: the result for `COc1ccc(S(=O)(=O)CC(O)(CNC(=O)C2CCCC2)C(=O)NO)cc1` (stereo not shown) [Example 6, N-Hydroxy-2-hydroxy-2-[(4-methoxybenzenesulfonyl)methyl]-3-[N-(cyclopentylcarbonyl)amino]-propionamide] reads 350 nM; that for `COc1ccc(C(=O)NCC(O)(CS(=O)(=O)c2ccc(OC)cc2)C(=O)NO)cc1` (stereo not shown) [Example 7, N-Hydroxy-2-hydroxy-2-[(4-methoxybenzenesulfonyl)methyl]-3-(N-(4-methoxybenzenecarbonyl)amino)-propionamide], 280 nM.
